Assay results reported in US20240180881A1, “METHODS FOR DECREASING RESISTANCE TO CHEMOTHERAPY” (National Institute of Immunology, priority 2022, published 2024).

Experiments:
[1] = target: T1, RAD54-BLM interaction in HEK293T cells (Homo sapiens, UniProt Q92698); test: In cellulo interaction assay, immunoprecipitation with anti-BLM antibody; format: cell-based; conditions: 100 nM compound, 72 hours
T1 construct: endogenous in cells; host or cells: HEK293T
T1 sequence (Q92698 1-747): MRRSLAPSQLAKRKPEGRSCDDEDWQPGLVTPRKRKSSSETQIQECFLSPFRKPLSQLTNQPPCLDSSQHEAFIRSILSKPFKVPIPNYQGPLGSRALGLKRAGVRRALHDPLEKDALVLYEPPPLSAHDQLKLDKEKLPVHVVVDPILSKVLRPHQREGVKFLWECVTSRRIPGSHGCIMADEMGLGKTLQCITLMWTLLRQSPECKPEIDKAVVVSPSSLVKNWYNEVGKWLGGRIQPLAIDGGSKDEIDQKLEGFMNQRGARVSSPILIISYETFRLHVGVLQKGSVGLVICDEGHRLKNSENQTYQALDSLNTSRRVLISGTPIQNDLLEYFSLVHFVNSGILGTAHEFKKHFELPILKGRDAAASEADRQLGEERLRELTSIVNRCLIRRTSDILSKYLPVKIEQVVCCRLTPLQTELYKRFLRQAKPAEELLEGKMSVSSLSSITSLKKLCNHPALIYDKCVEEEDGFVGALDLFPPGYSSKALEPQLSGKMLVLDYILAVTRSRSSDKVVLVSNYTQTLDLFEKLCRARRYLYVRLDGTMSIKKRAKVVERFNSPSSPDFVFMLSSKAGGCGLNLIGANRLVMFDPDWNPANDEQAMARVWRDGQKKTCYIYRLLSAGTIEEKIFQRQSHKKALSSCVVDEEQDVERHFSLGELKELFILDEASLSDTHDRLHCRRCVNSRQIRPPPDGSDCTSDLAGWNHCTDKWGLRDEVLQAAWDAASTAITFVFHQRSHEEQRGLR
Experimental: The levels of bound RAD54 were determined by immunoblotting with anti-RAD54 antibody (FIG. 5B). […] (Left) Direct westerns were carried out with antibodies against BLM, RAD54, bActin. (Right) immunoprecipitation (IP) was carried out with anti-BLM antibody. Westerns were carried out with anti-BLM, anti-RAD54 antibodies. The experiment was repeated three times and one representative experiment has been shown (FIG. 11B).

[2] = test system: HCT116 IC60 CPTR tumors; test: siRNA-based ablation in xenograft studies; format: in vivo, SCID mice
Experimental: To determine whether the three key players (MRP2, BLM and RAD54) were indispensable for reverting chemoresistance in colon cancer, siRNA-based ablation in xenograft studies was carried out using SCID mice. Once the tumor volume reached 50 mm^3, either siControl or siRAD54 or siBLM or siMRP2 were injected at the base of the tumor using TAC6 polymer mediated in vivo delivery. The experiment was stopped after 21 days after which the levels of RAD54, BLM, MRP2 transcripts were analyzed by RT-qPCR to validate the downregulation of the cognate genes (FIG. 14A-14C). […] This is probably because of greater retention of CPT inside the tumors and thereby allowing increased chemotherapeutic potential of the drug (FIG. 7B).

SMILES | RAD54 co-immunoprecipitated with BLM [1] | tumor growth ([2]; siBLM, compound and CPT) | tumor volume ([2]; siControl, compound and CPT compared to only CPT) | tumor development ([2]; siMRP2, compound and CPT)
CC(=O)Nc1nnc(S(N)(=O)=O)s1 [C3, Acetazolamide] | disrupted the RAD54-BLM interaction |  |  | 
OCCN(CCO)c1nc(N2CCCCC2)c2nc(N(CCO)CCO)nc(N3CCCCC3)c2n1 [C7, Dipyridamole] | disrupted the RAD54-BLM interaction |  |  | 
CN1CCN(C2=Nc3ccccc3Oc3ccc(Cl)cc32)CC1.O=C(O)CCC(=O)O [C17, Loxapine succinate] |  | rescued tumor growth | decreased tumor volume | decreased tumor development
